# Results taken from patent US12539320B2, “Composition for improving eyesight” (South China Agricultural University, priority 2022, dated 2026).
# Tests used:
# Format in all cases: in vivo, BALB/c mice
# Conditions in all cases: 5 μL dripped into conjunctival sac 2 times a day for 15 days, mean (SD in next cell)
# [1] = system: conjunctival epithelial mucin MUC5AC; assay: Expression amount of conjunctival epithelial mucin MUC5AC by Western Blot in xerophthalmia mice
# Experimental: (§1) 1.1 Test animals: 100 SPF-grade 8-week-old healthy BALB/c mice, each weighed 18-22 g, were selected, and anterior segment and fundus of the eyes were not abnormal.
# (§2) 1.2. Establishment of animal model: 90 mice were selected to induce a model of xerophthalmia. 5 μL of 2 g/L of a benzalkonium chloride solution was dripped into conjunctival sac of the eyes of 90 mice for 2 times a day and continuously for 15 days. After the modeling was success, the mice were randomly divided into 9 groups with 10 mice in each group.
# (§3) 1.3. […] After 15 days, the secretion amount of tear, breakup time of a tear film, and the expression amount of conjunctival epithelial mucin MUC5AC were measured for the mice in each group.
# (3) Measurement of expression amount of conjunctival epithelial mucin MUC5AC: an expression level of the mucin MUC5AC in the conjunctival epithelial cells of the mouse was detected by Western Blot.
# mice with xerophthalmia [2] = assay: Measurement of breakup time of tear film (fluorescein sodium, slit lamp) in xerophthalmia mice
# Experimental: as §1, §2, §3
# (2) Measurement of breakup time of tear film: 1 μL of 10 g/L of a fluorescein sodium solution was dripped into the conjunctival sac of the mouse, after the mouse blinked, the eyes were artificially kept in a normal opening state, and time for a tear film to generate the 1st black spot (breaking point) was observed and recorded under a cobalt blue light of a slit lamp.
# mice with xerophthalmia [3] = assay: Measurement of secretion amount of tear (phenol red cotton thread) in benzalkonium chloride-induced xerophthalmia mice
# Experimental: as §1, §2, §3
# (1) Measurement of secretion amount of tear: a phenol red cotton thread was placed in the conjunctival sac of the mouse at about ⅓ outside for 1 min and a length of a red part of the phenol red cotton thread was measured.
substance,measurement,setting,value
lutein ester [Comparative example 3],Expression amount of conjunctival epithelial mucin MUC5AC,[1],0.38 ng/mg
same,Breakup time of tear film,mice with xerophthalmia [2],36.72 s
same,Secretion amount of tear,mice with xerophthalmia [3],6.46 mm
